Our source for the dTm and IC50 values is PMC12866797, “Targeting DESI2 as a Novel Therapeutic Strategy for JAK2‐Mutant Leukemias” (Advanced Science, 2025).

Structures are written as SMILES.

Assay [1] has as its target T1, DESI2 (Homo sapiens, UniProt Q9BSY9).
T1 construct: residues 1-194, pET28a vector, E. coli BL21 (DE3), Ni-NTA purified
The assay is described as follows: thermal shift assay. Conditions: 100 µM compound. In kind it is binding.

In another assay the target is JOSD1 (Homo sapiens, UniProt Q15040). As to the kind of experiment: Ub-Rho fluorescence assay. In kind it is biochemical.
For assay [2], the target named is T1, DESI2. As to the kind of experiment: Ub-AMC fluorescence assay, initial rate. Format: biochemical.

T1 sequence (Q9BSY9 whole entry, the tested form may be a part): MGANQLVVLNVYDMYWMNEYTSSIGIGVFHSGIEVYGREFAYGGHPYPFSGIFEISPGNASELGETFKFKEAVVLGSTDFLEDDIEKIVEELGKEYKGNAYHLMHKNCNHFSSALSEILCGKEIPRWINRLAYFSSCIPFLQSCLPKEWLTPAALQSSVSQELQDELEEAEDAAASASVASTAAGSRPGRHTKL

On to `N#CN1CC[C@H](C(=O)Nc2nc3cc(-c4ccc5c(c4)OCO5)ccc3s2)C1` [WWQ-03-012], for which, on DESI2 [1], the dTm was determined as 3.5 °C. Besides, the IC50 against JOSD1 is over 10 µM; against DESI2 [2] it was 47.3 nM.

The term IC50 denotes the point on the concentration scale where inhibition reaches its midpoint. A higher IC50 goes with weaker potency.
